Experimental data: US20220281848A1, “PYRAZOLE-SUBSTITUTED PYRROLIDINONES AS HERBICIDES” (FMC Corporation, priority 2019, published 2022)

What was measured:
Format in all cases: in vivo
Conditions in all cases: after 13 d
corn (Zea mays, ZEAMX) [1] = assay: Test A pre-emergence, corn
Description: (§1) Seeds of corn (Zea mays, ZEAMX), giant foxtail (Setaria faberi, SETFA), barnyardgrass (Echinochloa crus-galli, ECHCG), ivy-leaved morning glory (Ipomoea hederacea, IPOHE), redroot pigweed (Amaranthus retroflexus, AMARE) and velvetleaf (Abutilon theophrasti, ABUTH) were sown in standard soil in pots. After cultivation for one day under controlled conditions in a glasshouse (at 24/16° C., day/night; 14 h light; 65% humidity), the plants were sprayed with an aqueous spray solution derived from the formulation of the technical active ingredient in acetone/water (50:50) solution containing 0.5% Tween 20 (polyoxyethylene sorbitan monolaurate, CAS RN 9005-64-5) to give a final dose of 15.625, 62.5 or 250 g/ha of test compound.
(§2) The test plants were then grown under controlled conditions in a glasshouse (at 24/16° C., day/night; 14 h light; 65% humidity) and watered twice daily. After 13 d the test was evaluated (100=total damage to plant; 0=no damage to plant).

[2] = tested on: ivy-leaved morning glory (Ipomoea hederacea, IPOHE); assay: Test A post-emergence, ivy-leaved morning glory
Description: as §1, with “IPOHE)),” for “IPOHE),”, “8 d” for “one day”
(§3) The test plants were then grown on under controlled conditions in a glasshouse (at 24/16° C., day/night; 14 h light; 65% humidity) and watered twice daily. After 13 d the test was evaluated (100=total damage to plant; 0=no damage to plant).

corn (Zea mays, ZEAMX) [3] = assay: Test A post-emergence, corn
Description: as §1, with “IPOHE)),” for “IPOHE),”, “8 d” for “one day”
as §3

[4] = tested on: redroot pigweed (Amaranthus retroflexus, AMARE); assay: Test A post-emergence, redroot pigweed
Description: as §1, with “IPOHE)),” for “IPOHE),”, “8 d” for “one day”
as §3

[5] = tested on: giant foxtail (Setaria faberi, SETFA); assay: Test A post-emergence, giant foxtail
Description: as §1, with “IPOHE)),” for “IPOHE),”, “8 d” for “one day”
as §3

[6] = tested on: velvetleaf (Abutilon theophrasti, ABUTH); assay: Test A post-emergence, velvetleaf
Description: as §1, with “IPOHE)),” for “IPOHE),”, “8 d” for “one day”
as §3

[7] = tested on: barnyardgrass (Echinochloa crus-galli, ECHCG); assay: Test A pre-emergence, barnyardgrass
Description: as §1, §2

[8] = tested on: velvetleaf (Abutilon theophrasti, ABUTH); assay: Test A pre-emergence, velvetleaf
Description: as §1, §2

[9] = tested on: redroot pigweed (Amaranthus retroflexus, AMARE); assay: Test A pre-emergence, redroot pigweed
Description: as §1, §2

[10] = tested on: barnyardgrass (Echinochloa crus-galli, ECHCG); assay: Test A post-emergence, barnyardgrass
Description: as §1, with “IPOHE)),” for “IPOHE),”, “8 d” for “one day”
as §3

[11] = tested on: giant foxtail (Setaria faberi, SETFA); assay: Test A pre-emergence, giant foxtail
Description: as §1, §2

[12] = tested on: ivy-leaved morning glory (Ipomoea hederacea, IPOHE); assay: Test A pre-emergence, ivy-leaved morning glory
Description: as §1, §2

SMILES	damage to plant (100=total damage; 0=no damage) ZEAMX (corn (Zea mays, ZEAMX) [1]; Pre-Emergence at 15.625 g/ha)	damage to plant (100=total damage; 0=no damage) ZEAMX (corn (Zea mays, ZEAMX) [1]; Pre-Emergence at 62.5 g/ha)	damage to plant (100=total damage; 0=no damage) IPOHE ([2]; Post-Emergence at 15.625 g/ha)	damage to plant (100=total damage; 0=no damage) IPOHE ([2]; Post-Emergence at 62.5 g/ha)	damage to plant (100=total damage; 0=no damage) ZEAMX (corn (Zea mays, ZEAMX) [3]; Post-Emergence at 15.625 g/ha)	damage to plant (100=total damage; 0=no damage) ZEAMX (corn (Zea mays, ZEAMX) [3]; Post-Emergence at 62.5 g/ha)	damage to plant (100=total damage; 0=no damage) AMARE ([4]; Post-Emergence at 15.625 g/ha)	damage to plant (100=total damage; 0=no damage) AMARE ([4]; Post-Emergence at 62.5 g/ha)	damage to plant (100=total damage; 0=no damage) SETFA ([5]; Post-Emergence at 15.625 g/ha)	damage to plant (100=total damage; 0=no damage) SETFA ([5]; Post-Emergence at 62.5 g/ha)	damage to plant (100=total damage; 0=no damage) ABUTH ([6]; Post-Emergence at 15.625 g/ha)	damage to plant (100=total damage; 0=no damage) ABUTH ([6]; Post-Emergence at 62.5 g/ha)	damage to plant (100=total damage; 0=no damage) ECHCG ([7]; Pre-Emergence at 15.625 g/ha)	damage to plant (100=total damage; 0=no damage) ECHCG ([7]; Pre-Emergence at 62.5 g/ha)	damage to plant (100=total damage; 0=no damage) ABUTH ([8]; Pre-Emergence at 15.625 g/ha)	damage to plant (100=total damage; 0=no damage) ABUTH ([8]; Pre-Emergence at 62.5 g/ha)	damage to plant (100=total damage; 0=no damage) AMARE ([9]; Pre-Emergence at 15.625 g/ha)	damage to plant (100=total damage; 0=no damage) AMARE ([9]; Pre-Emergence at 62.5 g/ha)	damage to plant (100=total damage; 0=no damage) ECHCG ([10]; Post-Emergence at 15.625 g/ha)	damage to plant (100=total damage; 0=no damage) ECHCG ([10]; Post-Emergence at 62.5 g/ha)	other results
CN1CC(c2cc(Cl)n(C)n2)C(C(=O)Nc2ccc(F)cc2F)C1=O (racemic) [Compound 29]	0	10	0	0	0	0	10	30	10	20	0	0	30	70	0	0	0	0	20	50	damage to plant (100=total damage; 0=no damage) ZEAMX (corn (Zea mays, ZEAMX) [1]; Pre-Emergence at 250 g/ha): 10; damage to plant (100=total damage; 0=no damage) IPOHE ([2]; Post-Emergence at 250 g/ha): 10; damage to plant (100=total damage; 0=no damage) ZEAMX (corn (Zea mays, ZEAMX) [3]; Post-Emergence at 250 g/ha): 0; damage to plant (100=total damage; 0=no damage) AMARE ([4]; Post-Emergence at 250 g/ha): 40; damage to plant (100=total damage; 0=no damage) SETFA ([5]; Post-Emergence at 250 g/ha): 60; damage to plant (100=total damage; 0=no damage) ABUTH ([6]; Post-Emergence at 250 g/ha): 0; damage to plant (100=total damage; 0=no damage) ECHCG ([7]; Pre-Emergence at 250 g/ha): 80; damage to plant (100=total damage; 0=no damage) ABUTH ([8]; Pre-Emergence at 250 g/ha): 0; damage to plant (100=total damage; 0=no damage) AMARE ([9]; Pre-Emergence at 250 g/ha): 0; damage to plant (100=total damage; 0=no damage) ECHCG ([10]; Post-Emergence at 250 g/ha): 60; damage to plant (100=total damage; 0=no damage) SETFA ([11]; Pre-Emergence at 15.625 g/ha): 20; damage to plant (100=total damage; 0=no damage) SETFA ([11]; Pre-Emergence at 62.5 g/ha): 30; damage to plant (100=total damage; 0=no damage) SETFA ([11]; Pre-Emergence at 250 g/ha): 80; damage to plant (100=total damage; 0=no damage) IPOHE ([12]; Pre-Emergence at 15.625 g/ha): 0; damage to plant (100=total damage; 0=no damage) IPOHE ([12]; Pre-Emergence at 62.5 g/ha): 0; damage to plant (100=total damage; 0=no damage) IPOHE ([12]; Pre-Emergence at 250 g/ha): 0
CN1CC(c2nn(C)c(Cl)c2Br)C(C(=O)Nc2ccc(F)cc2F)C1=O (racemic) [Compound 30]	0	0	0	0	0	0	0	0	10	20	0	0	0	10	0	0	0	0	0	20	damage to plant (100=total damage; 0=no damage) ZEAMX (corn (Zea mays, ZEAMX) [1]; Pre-Emergence at 250 g/ha): 0; damage to plant (100=total damage; 0=no damage) IPOHE ([2]; Post-Emergence at 250 g/ha): 0; damage to plant (100=total damage; 0=no damage) ZEAMX (corn (Zea mays, ZEAMX) [3]; Post-Emergence at 250 g/ha): 0; damage to plant (100=total damage; 0=no damage) AMARE ([4]; Post-Emergence at 250 g/ha): 10; damage to plant (100=total damage; 0=no damage) SETFA ([5]; Post-Emergence at 250 g/ha): 50; damage to plant (100=total damage; 0=no damage) ABUTH ([6]; Post-Emergence at 250 g/ha): 0; damage to plant (100=total damage; 0=no damage) ECHCG ([7]; Pre-Emergence at 250 g/ha): 20; damage to plant (100=total damage; 0=no damage) ABUTH ([8]; Pre-Emergence at 250 g/ha): 0; damage to plant (100=total damage; 0=no damage) AMARE ([9]; Pre-Emergence at 250 g/ha): 10; damage to plant (100=total damage; 0=no damage) ECHCG ([10]; Post-Emergence at 250 g/ha): 50; damage to plant (100=total damage; 0=no damage) SETFA ([11]; Pre-Emergence at 15.625 g/ha): 0; damage to plant (100=total damage; 0=no damage) SETFA ([11]; Pre-Emergence at 62.5 g/ha): 0; damage to plant (100=total damage; 0=no damage) SETFA ([11]; Pre-Emergence at 250 g/ha): 10; damage to plant (100=total damage; 0=no damage) IPOHE ([12]; Pre-Emergence at 15.625 g/ha): 0; damage to plant (100=total damage; 0=no damage) IPOHE ([12]; Pre-Emergence at 62.5 g/ha): 0; damage to plant (100=total damage; 0=no damage) IPOHE ([12]; Pre-Emergence at 250 g/ha): 10
CN1CC(c2nn(C)c(Cl)c2Br)C(C(=O)Nc2ccc(F)c(F)c2F)C1=O (racemic) [Compound 32]	0	10	0	0	0	0	0	0	20	60	0	0	30	50	0	0	0	0	10	40	damage to plant (100=total damage; 0=no damage) ZEAMX (corn (Zea mays, ZEAMX) [1]; Pre-Emergence at 250 g/ha): 10; damage to plant (100=total damage; 0=no damage) IPOHE ([2]; Post-Emergence at 250 g/ha): 10; damage to plant (100=total damage; 0=no damage) ZEAMX (corn (Zea mays, ZEAMX) [3]; Post-Emergence at 250 g/ha): 10; damage to plant (100=total damage; 0=no damage) AMARE ([4]; Post-Emergence at 250 g/ha): 0; damage to plant (100=total damage; 0=no damage) SETFA ([5]; Post-Emergence at 250 g/ha): 80; damage to plant (100=total damage; 0=no damage) ABUTH ([6]; Post-Emergence at 250 g/ha): 0; damage to plant (100=total damage; 0=no damage) ECHCG ([7]; Pre-Emergence at 250 g/ha): 70; damage to plant (100=total damage; 0=no damage) ABUTH ([8]; Pre-Emergence at 250 g/ha): 0; damage to plant (100=total damage; 0=no damage) AMARE ([9]; Pre-Emergence at 250 g/ha): 0; damage to plant (100=total damage; 0=no damage) ECHCG ([10]; Post-Emergence at 250 g/ha): 80; damage to plant (100=total damage; 0=no damage) SETFA ([11]; Pre-Emergence at 15.625 g/ha): 20; damage to plant (100=total damage; 0=no damage) SETFA ([11]; Pre-Emergence at 62.5 g/ha): 60; damage to plant (100=total damage; 0=no damage) SETFA ([11]; Pre-Emergence at 250 g/ha): 90; damage to plant (100=total damage; 0=no damage) IPOHE ([12]; Pre-Emergence at 15.625 g/ha): 0; damage to plant (100=total damage; 0=no damage) IPOHE ([12]; Pre-Emergence at 62.5 g/ha): 0; damage to plant (100=total damage; 0=no damage) IPOHE ([12]; Pre-Emergence at 250 g/ha): 10
Cn1nc([C@H]2CNC(=O)[C@@H]2C(=O)Nc2cccc(F)n2)cc1C(C)(C)C [Compound 1]	0	0	0	0	0	0	0	0	0	0	0	0	0	0	0	0	0	0	0	0	damage to plant (100=total damage; 0=no damage) SETFA ([11]; Pre-Emergence at 15.625 g/ha): 0; damage to plant (100=total damage; 0=no damage) SETFA ([11]; Pre-Emergence at 62.5 g/ha): 0; damage to plant (100=total damage; 0=no damage) IPOHE ([12]; Pre-Emergence at 15.625 g/ha): 0; damage to plant (100=total damage; 0=no damage) IPOHE ([12]; Pre-Emergence at 62.5 g/ha): 0
